What follows are compounds tested on mice (assay: Passive avoidance test (block of cycloheximide-induced amnesia)). Conditions: Mus musculus, 2 h, intraperitoneal administration two hours prior to training, amnestic agent 30 mg/kg cycloheximide i.p., read-out: minimum effective dose (MED).
Type: in vivo
Experimental: Passive avoidance is an acute memory paradigm in which mice are allowed to enter a dark compartment from a lighted compartment, but are given a footshock (2 mA for 5 seconds) when they enter the dark compartment. […] If an amnestic agent (30 mg/kg cycloheximide i.p. in saline) immediately after the training session is given to the animals, they will make the transition into the dark compartment (i.e., memory of the shock is lost). Compounds with suspected nootropic or anti-amnestic effects are given by i.p. administration two hours prior to the training trial in attempt to block the effects of cycloheximide. […] This behavioral response is defined as passive avoidance. A no effect response in this test is defined as a failure to stay in the lighted compartment for 120 seconds.
Work on CCOC(=O)c1ccc(NC(=O)CCn2cnc3c(=O)n(Cc4ccccc4)cnc32)cc1 [Example 1, 4-[3-(1-benzyl-6-oxo-1,6-dihydropurin-9-yl)propionylamino]benzoic acid ethyl ester] yielded a minimal effective dose of 0.0003 mg/kg.
With CCCCn1cnc2c(ncn2CCC(=O)Nc2ccc(C(=O)OCC)cc2)c1=O [Example 2, 4-[3-(1-butyl-6-oxo-1,6-dihydropurin-9-yl)propionylamino]benzoic acid ethyl ester] the minimal effective dose was 0.001 mg/kg.
CCOC(=O)c1ccc(NC(=O)CCn2cnc3c(=O)n(C)cnc32)cc1 [Example 3, 4-[3-(1-methyl-6-oxo-1,6-dihydropurin-9-yl)propionylamino]benzoic acid ethyl ester] gave a minimal effective dose of 0.1 mg/kg.
Work on CCOC(=O)c1ccc(NC(=O)CCn2cnc3c(=O)n(CCN(C)C)cnc32)cc1 [Example 4, 4-[3-(1-(2-dimethylaminoethyl)-6-oxo-1,6-dihydropurin-9-yl)propionylamino]benzoic acid ethyl ester] yielded a minimal effective dose of 1 mg/kg.
CCOC(=O)c1ccc(NC(=O)CCn2cnc3c(=O)[nH]c(=O)[nH]c32)cc1 [Example 5, 4-[3-(2,6-dioxo-1,2,3,6-tetrahydropurin-9-yl)propionylamino]benzoic acid ethyl ester] gave a minimal effective dose of 0.001 mg/kg.
With CCOC(=O)c1ccc(NC(=O)CCn2cnc3c(N(C)C)ncnc32)cc1 [Example 7, 4-[3-(6-dimethylaminopurin-9-yl)propionylamino]benzoic acid ethyl ester] the minimal effective dose was 0.01 mg/kg.
CCOC(=O)c1ccc(NC(=O)CCn2cnc3c(Cl)nc(N)nc32)cc1 [Example 8, 4-[3-(2-amino-6-chloropurin-9-yl)propionylamino]benzoic acid ethyl ester] showed a minimal effective dose of 0.01 mg/kg.
Compound CCOC(=O)c1ccc(NC(=O)C(C)n2cnc3c(=O)[nH]c(=S)[nH]c32)cc1 (stereo not drawn) [Example 9, 4-[2-(6-oxo-2-thioxo-1,2,3,6-tetrahydropurin-9-yl)propionylamino]benzoic acid ethyl ester] has a minimal effective dose of 0.0001 mg/kg.
CCCCc1nc2c(ncn2C(C)C(=O)Nc2ccc(C(=O)OCC)cc2)c(=O)[nH]1 (stereo not drawn) [Example 10, 4-[2-(2-butyl-6-oxo-1,6-dihydropurin-9-yl)propionylamino]benzoic acid ethyl ester] was tested, and the minimal effective dose was 0.1 mg/kg.
With CCOC(=O)c1ccc(NC(=O)C(C)n2cnc3c(=O)[nH]c(-c4ccccc4)nc32)cc1 (stereo not drawn) [Example 11, 4-[2-(6-oxo-2-phenyl-1,6-dihydropurin-9-yl)propionylamino]benzoic acid ethyl ester] the minimal effective dose was 10 mg/kg.
Work on COC(=O)c1ccc(N(C)C(=O)CCn2cnc3c(Cl)ncnc32)cc1 [Example 12, 4-{[3-(6-chloropurin-9-yl)propionyl]methylamino}benzoic acid methyl ester] yielded a minimal effective dose of 0.0001 mg/kg.
O=C(CCn1cnc2c(=O)n(Cc3ccccc3)cnc21)NCCCN1CCCC1=O [Example 13, 3-(1-benzyl-6-oxo-1,6-dihydropurin-9-yl)-N-[3-(2-oxopyrrolidin-1-yl)propyl]propionamide] gave a minimal effective dose of 1 mg/kg.
O=C(CCn1cnc2c(=O)n(Cc3ccccc3)cnc21)NCCNC(=O)CN1CCCC1=O [Example 14, 3-(1-benzyl-6-oxo-1,6-dihydropurin-9-yl)-N-{2-[2-(2-oxopyrrolidin-1-yl)acetylamino]ethyl}propionamide] was tested, and the minimal effective dose was 1 mg/kg.

These compounds were tested on mice in the same assay as above. Conditions: Mus musculus, oral administration, amnestic agent 30 mg/kg cycloheximide i.p., read-out: minimum effective dose (MED).
Type: in vivo
In the case of CCOC(=O)c1ccc(NC(=O)CCn2cnc3c(=O)n(Cc4ccccc4)cnc32)cc1 [Example 1, 4-[3-(1-benzyl-6-oxo-1,6-dihydropurin-9-yl)propionylamino]benzoic acid ethyl ester], the minimal effective dose is reported as 10 µg/kg.
For CCOC(=O)c1ccc(NC(=O)C(C)n2cnc3c(=O)[nH]c(=S)[nH]c32)cc1 (stereo not drawn) [Example 9, 4-[2-(6-oxo-2-thioxo-1,2,3,6-tetrahydropurin-9-yl)propionylamino]benzoic acid ethyl ester], the minimal effective dose was 1 µg/kg.
